These results are taken from PubChem BioAssay (NCI).

The structures appear in SMILES notation.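 These data come from cells grown in 96-well plates and exposed to compound for 48 hours at five concentrations. TGI marks complete inhibition of growth.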 Some results are limits rather than exact numbers.

Among the test systems are SNB-19 CNS; HT29 colon; OVCAR-5 ovarian; IGROV1 ovarian; SK-MEL-5 melanoma; ACHN renal; NCI/ADR-RES ovarian; A549 NSCLC; CAKI-1 renal; PC-3 prostate; HL-60(TB) leukemia; HCT-15 colon; UO-31 renal; UACC-62 melanoma; EKVX NSCLC; NCI-H23 lung; HOP-92 NSCLC; KM12 colon; NCI-H460 lung.
What all share (assay): DTP human tumour cell line panel, 48 h

Turning to `N#C[C@@]12CCCC(=O)[C@@H]1[C@H]1CCC[C@H]12`, the TGI worked out at 42.4 µM in the assay on SNB-19 CNS; 52.4 µM in the assay with HT29 colon; 25.7 µM in the assay with OVCAR-5 ovarian; 32.2 µM in the assay on IGROV1 ovarian; 30.8 µM in the assay on SK-MEL-5 melanoma; 33.1 µM with ACHN renal. The TGI was 59.4 µM with NCI/ADR-RES ovarian; 37 µM in the assay on A549 NSCLC; 31.4 µM with CAKI-1 renal; 35.7 µM in the assay with PC-3 prostate; 34.1 µM in the assay with HL-60(TB) leukemia; 38.2 µM in the assay with HCT-15 colon. In addition, the total growth inhibition concentration (TGI) came to 30 µM in the assay on UO-31 renal; 58 µM with UACC-62 melanoma; 28.6 µM in the assay on EKVX NSCLC; 35 µM in the assay with NCI-H23 lung; 38 µM in the assay with HOP-92 NSCLC; 27.4 µM with KM12 colon. This molecule also yielded a total growth inhibition concentration (TGI) in the assay with NCI-H460 lung of 32.8 µM.
For `CCOP(=O)(OCC)/C(C#N)=C/c1cccn1N(C)C`, the TGI with SNB-19 CNS, in the assay on HT29 colon, in the assay with OVCAR-5 ovarian, in the assay on IGROV1 ovarian, in the assay on SK-MEL-5 melanoma and in the assay on ACHN renal was > 100 µM in each case. Further, the TGI in the assay with NCI/ADR-RES ovarian, with A549 NSCLC, in the assay with CAKI-1 renal, in the assay with PC-3 prostate, in the assay on HL-60(TB) leukemia and with HCT-15 colon was > 100 µM throughout. Also, the TGI in the assay with UO-31 renal, in the assay on UACC-62 melanoma, with EKVX NSCLC, with NCI-H23 lung, with HOP-92 NSCLC and in the assay on KM12 colon was > 100 µM throughout. Besides, the TGI with NCI-H460 lung is > 100 µM.
`O=C1CC(c2ccc[nH]2)=NN1c1ccccc1`: the total growth inhibition concentration (TGI) with SNB-19 CNS, in the assay with HT29 colon, in the assay on OVCAR-5 ovarian, in the assay on SK-MEL-5 melanoma, in the assay with ACHN renal and in the assay on NCI/ADR-RES ovarian was > 100 µM in each case. Moreover, the TGI in the assay with A549 NSCLC, with CAKI-1 renal, in the assay with PC-3 prostate, in the assay with HL-60(TB) leukemia, in the assay on HCT-15 colon and in the assay on UO-31 renal was > 100 µM throughout. In addition, the TGI with UACC-62 melanoma, in the assay on EKVX NSCLC, with NCI-H23 lung, in the assay on HOP-92 NSCLC, in the assay on KM12 colon and in the assay with NCI-H460 lung was > 100 µM each time.
Consider `CN(C)CCNC(=O)c1ccc(NCCCN(C)CCCNc2ccc(C(=O)NCCN(C)C)c3[nH]c4ccc([N+](=O)[O-])cc4c(=O)c23)c2c(=O)c3cc([N+](=O)[O-])ccc3[nH]c12`, for which the total growth inhibition concentration (TGI) is 0.649 µM in the assay with SNB-19 CNS; 1.02 µM with HT29 colon; 1.71 µM in the assay on OVCAR-5 ovarian; 0.389 µM in the assay on IGROV1 ovarian; 1.14 µM with SK-MEL-5 melanoma; 1.5 µM with ACHN renal. Further, the concentration for total growth inhibition (TGI) with NCI/ADR-RES ovarian worked out at 3.58 µM; in the assay on A549 NSCLC it was 0.64 µM; in the assay with CAKI-1 renal, 3.75 µM; in the assay with PC-3 prostate, 0.535 µM; in the assay with HL-60(TB) leukemia, 1.01 µM; in the assay with HCT-15 colon, 1.8 µM. Moreover, the total growth inhibition concentration (TGI) with UO-31 renal was determined as 2.01 µM; in the assay on UACC-62 melanoma, 0.622 µM; with NCI-H23 lung, 0.537 µM; in the assay on HOP-92 NSCLC, 0.933 µM; in the assay with NCI-H460 lung, 0.169 µM.
With `CC1(C)N=C(/C=N/O)C(C)(C)N1O`, the TGI in the assay with SNB-19 CNS, in the assay on HT29 colon, with OVCAR-5 ovarian, with IGROV1 ovarian, in the assay with SK-MEL-5 melanoma and in the assay on ACHN renal was > 100 µM each time. Moreover, the TGI in the assay with NCI/ADR-RES ovarian, in the assay on A549 NSCLC, in the assay with PC-3 prostate, with HL-60(TB) leukemia, in the assay on HCT-15 colon and in the assay on UO-31 renal was > 100 µM each time. Also, the TGI in the assay on UACC-62 melanoma, with EKVX NSCLC, with NCI-H23 lung, in the assay on HOP-92 NSCLC, in the assay on KM12 colon and in the assay with NCI-H460 lung was > 100 µM throughout.
With `C/C(=N\O)c1cccc(Nc2nc3ccccc3c3occc23)c1`, the TGI turned out to be 39.8 µM with SNB-19 CNS; 15.6 µM in the assay on HT29 colon; 30.7 µM in the assay with OVCAR-5 ovarian; 27 µM in the assay with SK-MEL-5 melanoma; 22.8 µM with ACHN renal; 29.7 µM in the assay on NCI/ADR-RES ovarian. In addition, the concentration for total growth inhibition (TGI) in the assay with A549 NSCLC is 32.5 µM; in the assay with CAKI-1 renal it was 34.2 µM; with PC-3 prostate, 25.8 µM; with HL-60(TB) leukemia, 61.1 µM; in the assay with HCT-15 colon, 22.4 µM; in the assay with UACC-62 melanoma, 5.22 µM. For the same molecule, the TGI in the assay with EKVX NSCLC is 25.6 µM; in the assay on HOP-92 NSCLC, 20.2 µM; in the assay with KM12 colon it was 27.3 µM; in the assay on NCI-H460 lung, 21 µM.
Consider `COc1cc(/C=C/C(=O)N[C@@H]2C(=O)N3[C@@H]2SC(C)(C)[C@@H]3C(=O)O)cc(OC)c1OC`, for which the TGI with SNB-19 CNS, with HT29 colon, in the assay with OVCAR-5 ovarian, in the assay with SK-MEL-5 melanoma, in the assay on ACHN renal and with NCI/ADR-RES ovarian was > 100 µM throughout. Further, the concentration for total growth inhibition (TGI) in the assay on A549 NSCLC, in the assay on CAKI-1 renal, in the assay with PC-3 prostate, with HL-60(TB) leukemia, in the assay on HCT-15 colon and with UO-31 renal was > 100 µM throughout. Further, the TGI with UACC-62 melanoma, in the assay on EKVX NSCLC, with NCI-H23 lung, in the assay with HOP-92 NSCLC, in the assay with KM12 colon and in the assay with NCI-H460 lung was > 100 µM in each case.
`O=CC1OC(=O)c2cc(O)c(O)c(O)c2-c2c(cc(O)c(O)c2O)C(=O)OC1C(O)C(O)CO` (stereo not drawn): the TGI in the assay with SNB-19 CNS is > 100 µM; in the assay with HT29 colon, 46.8 µM; with OVCAR-5 ovarian, > 100 µM; with IGROV1 ovarian, > 100 µM; with SK-MEL-5 melanoma it was > 100 µM; in the assay with ACHN renal, > 100 µM. In addition, the TGI in the assay with NCI/ADR-RES ovarian is > 100 µM; in the assay with A549 NSCLC it was > 100 µM; in the assay with CAKI-1 renal, 35.9 µM; in the assay on PC-3 prostate it was 31.9 µM; in the assay with HL-60(TB) leukemia it was > 100 µM; in the assay on HCT-15 colon it was > 100 µM. Further, the TGI in the assay on UO-31 renal, in the assay on EKVX NSCLC, in the assay with NCI-H23 lung, in the assay on HOP-92 NSCLC, with KM12 colon and in the assay with NCI-H460 lung was > 100 µM throughout.
